Results from PubChem BioAssay AID256 (DTP/NCI, 2004).
Values joined by “and” are separate entries in the source; they are usually repeats but may differ in a detail not shown here. Identical values can stand only once. Inconclusive results and toxic doses are left out. How the source made its calls: active means survival T/C of 150% or more; inactive means T/C below 125% in these data.

Tested on: CD2F1 mice, L1210 leukemia ip, survival T/C
Test: NCI In Vivo Anticancer Drug Screen. Data for tumor model L1210 Leukemia (intraperitoneal) in CD2F1 (CDF1) mice
Details: higher = longer survival
Procedure, shortened: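 Read-out first: treated-group measurement over vehicle-control measurement, expressed as a ratio. Animals bore a transplanted tumor line and were dosed with compound or vehicle.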

[1] = endpoint: mean survival time, dose: 12.5 mg/kg/injection, schedule: Q04DX003 (ip), vehicle: saline with Tween-80
[2] = endpoint: mean survival time, dose: 25.0 mg/kg/injection, schedule: Q04DX003 (ip), vehicle: saline with Tween-80
[3] = endpoint: mean survival time, dose: 50.0 mg/kg/injection, schedule: Q04DX003 (ip), vehicle: saline with Tween-80
[4] = endpoint: mean survival time, dose: 100.0 mg/kg/injection, schedule: Q04DX003 (ip), vehicle: saline with Tween-80
[5] = endpoint: mean survival time, dose: 100.0 mg/kg/injection, schedule: Q04DX003 (ip), vehicle: saline
[6] = endpoint: mean survival time, dose: 200.0 mg/kg/injection, schedule: Q04DX003 (ip), vehicle: saline with Tween-80
[7] = endpoint: mean survival time, dose: 200.0 mg/kg/injection, schedule: Q04DX003 (ip), vehicle: saline
[8] = endpoint: mean survival time, dose: 50.0 mg/kg/injection, schedule: Q04DX002 (ip), vehicle: saline with Tween-80
[9] = endpoint: mean survival time, dose: 400.0 mg/kg/injection, schedule: Q04DX003 (ip), vehicle: saline with Tween-80
[10] = endpoint: mean survival time, dose: 25.0 mg/kg/injection, schedule: Q01DX009 (ip), vehicle: saline with Tween-80
[11] = endpoint: mean survival time, dose: 50.0 mg/kg/injection, schedule: Q01DX009 (ip), vehicle: saline with Tween-80
[12] = endpoint: mean survival time, dose: 100.0 mg/kg/injection, schedule: Q01DX009 (ip), vehicle: saline with Tween-80
[13] = endpoint: mean survival time, dose: 200.0 mg/kg/injection, schedule: Q01DX009 (ip), vehicle: saline with Tween-80
[14] = endpoint: mean survival time, dose: 12.5 mg/kg/injection, schedule: Q04DX003 (ip), vehicle: distilled water + Tween-80
[15] = endpoint: mean survival time, dose: 25.0 mg/kg/injection, schedule: Q04DX003 (ip), vehicle: distilled water + Tween-80
[16] = endpoint: mean survival time, dose: 50.0 mg/kg/injection, schedule: Q04DX003 (ip), vehicle: distilled water + Tween-80
[17] = endpoint: mean survival time, dose: 100.0 mg/kg/injection, schedule: Q04DX003 (ip), vehicle: distilled water + Tween-80
[18] = endpoint: mean survival time, dose: 25.0 mg/kg/injection, schedule: Q04DX002 (ip), vehicle: saline with Tween-80

Measured: T/C

Cc1cc(C)[nH]c(=S)n1.[Pt]
inactive: endpoint: mean survival time, dose: 3.12 mg/kg/injection, schedule: Q04DX003 (ip), vehicle: saline with Tween-80 104 % of control | endpoint: mean survival time, dose: 3.12 mg/kg/injection, schedule: Q04DX003 (ip), vehicle: saline 120 % of control and 108 % of control | endpoint: mean survival time, dose: 6.25 mg/kg/injection, schedule: Q04DX003 (ip), vehicle: saline with Tween-80 102 % of control | endpoint: mean survival time, dose: 6.25 mg/kg/injection, schedule: Q04DX003 (ip), vehicle: saline 117 % of control and 96 % of control | [1] 101 % of control | endpoint: mean survival time, dose: 12.5 mg/kg/injection, schedule: Q04DX003 (ip), vehicle: saline 96 % of control | [2] 98 % of control | endpoint: mean survival time, dose: 25.0 mg/kg/injection, schedule: Q04DX003 (ip), vehicle: saline 102 % of control | [3] 101 % of control | endpoint: mean survival time, dose: 50.0 mg/kg/injection, schedule: Q04DX003 (ip), vehicle: saline 96 % of control and 97 % of control | [4] 101 % of control | [5] 120 % of control and 96 % of control | [6] 107 % of control | [7] 106 % of control

CCN(CC)c1cccc(OC(=O)NC)c1
inactive: endpoint: mean survival time, dose: 5.0 mg/kg/injection, schedule: Q01DX001 (ip), vehicle: saline 102 % of control | endpoint: mean survival time, dose: 10.0 mg/kg/injection, schedule: Q01DX001 (ip), vehicle: saline 102 % of control | endpoint: mean survival time, dose: 20.0 mg/kg/injection, schedule: Q01DX001 (ip), vehicle: saline 102 % of control

COC(=O)C1C2CC3c4[nH]c5cc(OC)c(Br)cc5c4CCN3CC2CC(OC(=O)c2cc(OC)c(OC)c(OC)c2)C1OC (centres undefined)
inactive: endpoint: mean survival time, dose: 75.0 mg/kg/injection, schedule: Q01DX001 (ip), vehicle: saline 92 % of control | endpoint: mean survival time, dose: 150.0 mg/kg/injection, schedule: Q01DX001 (ip), vehicle: saline 103 % of control | endpoint: mean survival time, dose: 300.0 mg/kg/injection, schedule: Q01DX001 (ip), vehicle: saline 105 % of control

Nc1n[nH]c2cc(=O)[nH]c(O)c12
inactive: endpoint: mean survival time, dose: 75.0 mg/kg/injection, schedule: Q01DX009 (ip), vehicle: saline 97 % of control | endpoint: mean survival time, dose: 75.0 mg/kg/injection, schedule: Q04DX003 (ip), vehicle: saline 106 % of control | endpoint: mean survival time, dose: 150.0 mg/kg/injection, schedule: Q01DX009 (ip), vehicle: saline 103 % of control | endpoint: mean survival time, dose: 150.0 mg/kg/injection, schedule: Q04DX003 (ip), vehicle: saline 102 % of control | endpoint: mean survival time, dose: 300.0 mg/kg/injection, schedule: Q01DX009 (ip), vehicle: saline 111 % of control | endpoint: mean survival time, dose: 300.0 mg/kg/injection, schedule: Q04DX003 (ip), vehicle: saline 106 % of control

Oc1ccc(Sc2ccc(O)cc2O)c(O)c1
inactive: [5] 101 % of control | [7] 103 % of control | endpoint: mean survival time, dose: 400.0 mg/kg/injection, schedule: Q04DX003 (ip), vehicle: saline 93 % of control

CCOC(=O)C(=O)C1CCc2c(ccc3ccccc23)C1=O (centres undefined)
inactive: [8] 93 % of control | endpoint: mean survival time, dose: 100.0 mg/kg/injection, schedule: Q01DX001 (ip), vehicle: Klucel (hydroxypropylcellulose) (HPC) 91 % of control | endpoint: mean survival time, dose: 100.0 mg/kg/injection, schedule: Q04DX002 (ip), vehicle: saline with Tween-80 96 % of control | endpoint: mean survival time, dose: 200.0 mg/kg/injection, schedule: Q01DX001 (ip), vehicle: Klucel (hydroxypropylcellulose) (HPC) 93 % of control | endpoint: mean survival time, dose: 200.0 mg/kg/injection, schedule: Q04DX002 (ip), vehicle: saline with Tween-80 96 % of control

CCCCCCCCCCCCCCCCCS(=O)S(=O)O (centres undefined)
inactive: [4] 98 % of control | [6] 94 % of control | [9] 93 % of control

CC1=CCC(C(C)(C)c2ccc(O)cc2)CC1 (centres undefined)
inactive: [10] 94 % of control | [11] 110 % of control | [12] 98 % of control | [4] 90 % of control | [13] 96 % of control | [6] 104 % of control | [9] 90 % of control

COC(=O)C(Cc1ccc(O)cc1)NC(=O)C(C)NC(=O)OCc1ccccc1 (centres undefined)
inactive: [12] 92 % of control | [13] 93 % of control | endpoint: mean survival time, dose: 400.0 mg/kg/injection, schedule: Q01DX009 (ip), vehicle: saline with Tween-80 88 % of control

C=C1c2ccccc2C=NN1c1ccccc1
inactive: endpoint: mean survival time, dose: 100.0 mg/kg/injection, schedule: Q01DX001 (ip), vehicle: other 94 % of control | endpoint: mean survival time, dose: 200.0 mg/kg/injection, schedule: Q01DX001 (ip), vehicle: other 88 % of control | endpoint: mean survival time, dose: 400.0 mg/kg/injection, schedule: Q01DX001 (ip), vehicle: other 92 % of control

[Cl][Pt+2][Cl].[NH-]c1ccc(F)cc1F.[NH-]c1ccc(F)cc1F
inactive: [14] 114 % of control and 104 % of control and 110 % of control | [15] 115 % of control and 117 % of control and 96 % of control | [16] 116 % of control and 105 % of control | [17] 122 % of control and 88 % of control and 94 % of control

CCCCN1CCNCC1
inactive: [5] 93 % of control | [7] 94 % of control

COc1cc(OC)c(NC(=O)Oc2ccc3ccccc3c2)cc1Cl
inactive: [11] 94 % of control | [12] 94 % of control | [13] 97 % of control

CSc1ccc(OC(=O)Nc2ccccc2F)cc1
inactive: [4] 101 % of control | [6] 112 % of control

COc1cc([N+](=O)[O-])c(C)[n+]([O-])n1
inactive: [18] 96 % of control | [8] 104 % of control

CC(=O)CC(=O)c1ccccc1.CC(=O)CC(=O)c1ccccc1.[Pd]
inactive: endpoint: mean survival time, dose: 3.13 mg/kg/injection, schedule: Q04DX003 (ip), vehicle: distilled water + Tween-80 98 % of control | endpoint: mean survival time, dose: 6.25 mg/kg/injection, schedule: Q04DX003 (ip), vehicle: distilled water + Tween-80 89 % of control | [14] 100 % of control | [15] 86 % of control | [16] 87 % of control | [17] 89 % of control | endpoint: mean survival time, dose: 200.0 mg/kg/injection, schedule: Q04DX003 (ip), vehicle: distilled water + Tween-80 93 % of control

O=C(OCC1OC(n2cnc([N+](=O)[O-])n2)C(OC(=O)c2ccccc2)C1OC(=O)c1ccccc1)c1ccccc1 (centres undefined)
inactive: endpoint: median survival time, dose: 18.8 mg/kg/injection, schedule: Q01DX005 (ip), vehicle: Klucel (hydroxypropylcellulose) (HPC) 100 % of control | endpoint: median survival time, dose: 37.5 mg/kg/injection, schedule: Q01DX005 (ip), vehicle: Klucel (hydroxypropylcellulose) (HPC) 102 % of control | endpoint: median survival time, dose: 75.0 mg/kg/injection, schedule: Q01DX005 (ip), vehicle: Klucel (hydroxypropylcellulose) (HPC) 97 % of control | endpoint: median survival time, dose: 140.0 mg/kg/injection, schedule: Q01DX005 (ip), vehicle: Klucel (hydroxypropylcellulose) (HPC) 96 % of control

Cc1cc(N(CCCl)CCCl)ccc1C=Nc1cccnc1
inactive: endpoint: mean survival time, dose: 50.0 mg/kg/injection, schedule: Q01DX009 (ip), vehicle: Klucel (hydroxypropylcellulose) (HPC) 101 % of control | endpoint: mean survival time, dose: 100.0 mg/kg/injection, schedule: Q01DX009 (ip), vehicle: Klucel (hydroxypropylcellulose) (HPC) 106 % of control | endpoint: mean survival time, dose: 200.0 mg/kg/injection, schedule: Q01DX009 (ip), vehicle: Klucel (hydroxypropylcellulose) (HPC) 110 % of control | endpoint: mean survival time, dose: 400.0 mg/kg/injection, schedule: Q01DX009 (ip), vehicle: Klucel (hydroxypropylcellulose) (HPC) 112 % of control

C=CC#N
inactive: [1] 105 % of control | [2] 102 % of control | [3] 108 % of control

COc1cc2c(ccc3cc4cccc[n+]4cc32)c(Br)c1OC
inactive: endpoint: mean survival time, dose: 12.5 mg/kg/injection, schedule: Q01DX009 (ip), vehicle: saline with Tween-80 98 % of control | endpoint: mean survival time, dose: 12.5 mg/kg/injection, schedule: Q04DX003 (ip), vehicle: saline sonified 97 % of control | [10] 100 % of control | endpoint: mean survival time, dose: 25.0 mg/kg/injection, schedule: Q04DX003 (ip), vehicle: saline sonified 97 % of control | [11] 100 % of control | endpoint: mean survival time, dose: 50.0 mg/kg/injection, schedule: Q04DX003 (ip), vehicle: saline sonified 103 % of control

Cc1[nH]c2ccc(N=CN(C)C)cc2c1C
inactive: [18] 111 % of control | [8] 111 % of control
